The values that follow come from patent publication US10940139B2, “Compounds that interact with the Ras superfamily for the treatment of cancers, inflammatory diseases, rasopathies, and fibrotic disease” (Shy Therapeutics LLC, priority 2017, dated 2021).

Broadly, the inhibition is the relative decrease from the control value, in per cent.

Assay [1] concerns TNFα production in RAW 264.7 macrophage cell line. The assay can be described thus: Mouse TNF alpha quantification assay (LPS-stimulated macrophages, ELISA). In kind it is cell-based. Particulars: RAW264.7, RAW 264.7 murine leukemia virus transformed macrophage cell lines, LPS stimulation, read-out: TNF-α % Inhibition at 30 μM. In general terms: ELISA stands for enzyme-linked immunosorbent assay.

Assay [2] has as its system IL6 production in RAW 264.7 macrophage cell line. The assay is described as follows: Mouse IL6 quantification assay (LPS-stimulated macrophages, ELISA). It counts as cell-based. The note with it: RAW264.7, RAW 264.7 murine leukemia virus transformed macrophage cell lines, LPS stimulation, read-out: IL-6 % Inhibition at 30 μM.

Take `Oc1nc(-c2ncccn2)nc2c(-c3cccc(C(F)(F)F)c3)csc12` [drawing 2435]: the inhibition at 30 µM in assay [1] was in the range of 26 to 50%; in assay [2] it was 1 to 25%.
Consider `O=c1nc(-c2ccccn2)[nH]c2c1sc1ccccc12` [drawing 2030], for which the inhibition at 30 µM in assay [1] and in assay [2] was 76 to 100% in each case.
As for `CC(C)Oc1ccc(-c2csc3c(O)nc(-c4nccn4C)nc23)cn1`, the inhibition at 30 µM in assay [1] and in assay [2] was 76 to 100% throughout.
Regarding `COc1ccccc1C1CC1C(=O)Nc1nnc(-c2ccccn2)[nH]1` (stereo not shown) [drawing 1986], the inhibition at 30 µM in assay [1] lay in the range of 1 to 25%; in assay [2], 26 to 50%.
In the case of `O=C(Nc1nnc(-c2ccccn2)[nH]1)c1csc(-c2ccco2)n1` [drawing 1994], the inhibition at 30 µM in assay [1] was 0%; in assay [2], 51 to 75%.
The matching figures for `Cn1ccnc1-c1nc(O)c2sc(-c3ccccc3)c(-c3ccccc3)c2n1` [drawing 2415]: 0% and 1 to 25%.
For `CCOCCNc1nc(-c2nccn2C)nc2sc(-c3ccccc3)c(-c3ccccc3)c12` [drawing 2402] the same measures were 76 to 100% and 76 to 100%.
For `COCCCC(=O)N1CCCc2c(O)nc(-c3ccccn3)nc21` [drawing 2080] the same measures were 1 to 25% and 76 to 100%.
Take `Cc1sc2c(O)nc(-c3nccn3C)nc2c1-c1ccc(OC(C)C)c(F)c1` [drawing 2437]: the inhibition at 30 µM in assay [1] was 0%; in assay [2] it was 51 to 75%.
The matching figures for `O=C(c1ccc(=O)[nH]n1)N1CCCc2c(O)nc(-c3ccccn3)nc21` [drawing 2078]: 1 to 25% and 76 to 100%.
For `Cc1ccc(CC(=O)Nc2nnc(-c3ccccn3)[nH]2)s1` [drawing 1975] the same measures were 0% and 1 to 25%.
`Oc1cccc(-c2csc3c(O)nc(-c4ccccn4)nc23)n1` [drawing 2320]: the results for the inhibition at 30 µM in assay [1] and in assay [2] were 0% and 51 to 75%, respectively.
Turning to `COCCCC1CCN(C(=O)c2csc3c(O)nc(-c4ccccn4)nc23)CC1` [drawing 2104], the inhibition at 30 µM in assay [1] lay in the range of 1 to 25%; in assay [2] it was 51 to 75%.
For `NC(=O)C1CCCN(c2nc(-c3ccccn3)nc3scc(-c4ccccc4)c23)C1` (stereo not shown) [drawing 2160] the same measures were 1 to 25% and 1 to 25%.
For `Nc1nc(O)c2sc(-c3cccc(C(=O)NCc4cccc(O)n4)c3)cc2n1` [drawing 2373] the same measures were 0% and 51 to 75%.
The matching figures for `CCOCCC1CCN(C(=O)c2csc3c(O)nc(N)nc23)CC1` [drawing 2091]: 1 to 25% and 0%.
With `OCC1(c2ccc(-c3nc(-c4ccccn4)nc(-c4ccc(C5(CO)CC5)cc4)c3Oc3ccccc3)cc2)CC1` [drawing 2359], the inhibition at 30 µM in assay [1] and in assay [2] was 0% throughout.
As to `COc1ccc(C2CN(C(=O)c3csc4c(O)nc(-c5ccccn5)nc34)CCO2)cc1` (stereo not shown) [drawing 2193], the inhibition at 30 µM in assay [1] lay within 1 to 25%; in assay [2] it was 76 to 100%.
The matching figures for `COc1ccc(COCC(=O)N2CCCc3c(O)nc(-c4ccccn4)nc32)cc1` [drawing 2072]: 1 to 25% and 51 to 75%.
The matching figures for `COc1nc(-c2cn(C)cn2)nc2sc(-c3ccncc3)c(-c3ccccc3)c12` [drawing 2358]: 1 to 25% and 51 to 75%.
The matching figures for `COc1ccc(-c2c(C)sc3c(O)nc(-c4nccn4C)nc23)cn1` [drawing 2428]: 1 to 25% and 1 to 25%.
Consider `Nc1nc(O)c2sc(-c3cccc(C(=O)NC4CCNC4=O)c3)cc2n1` (stereo not shown) [drawing 2369], for which the inhibition at 30 µM in assay [1] and in assay [2] was 1 to 25% in each case.
Regarding `O=C(NCCc1cccnc1)c1cc2nc(-c3ccccn3)nc(O)c2s1` [drawing 2236], the inhibition at 30 µM in assay [1] fell in the range of 1 to 25%; in assay [2], 26 to 50%.
